From patent US20260275280A1, “DIRECTED DIFFERENTIATION PROTOCOLS TO DERIVE BONE FIDE SPINAL SENSORY INTERNEURONS” (THE REGENTS OF THE UNIVERSITY OF CALIFORNIA, priority 2022, published 2026)
“Also recorded” adds a separate entry of the source.

Legend:
Assay type in all cases: cell-based, mouse
CHIR-expanded EBs = assay: Differentiation of CHIR-expanded EBs on Matrigel (IHC, RT-qPCR at day 10)
Description: Embryoid body (EB) differentiation: To induce differentiation, EBs were dissociated into smaller clumps by a 5-7-minute treatment with cold 0.25% Trypsin (Gibco), followed by trituration. Trypsin was neutralized with 1:1 addition of Trypsin inhibitor (Sigma-Aldrich) and cells were pelleted by centrifugation at 1000RPM. Cell pellets were resuspended in N2/B27 medium (without growth factors) and plated onto a Matrigel precoated plate. In our experience, the single cell suspension of 100-150 EBs provided enough cells to seed one 24-well plate. […] At the end of 10 days, multiple neural processes can be visualized by phase contrast microscopy and cultures were either fixed with 4% PFA for immunohistochemistry or lysed to extract RNA in RLT buffer (Qiagen). […] CHIR withdrawal), or DAPT, a pro-differentiation agent (Crawford and Roelink, 2007) (FIG. 7J). […] This strategy was successful at restoring almost all dI identities in cultures taken from EBs both at the earliest passage and at the latest passage assessed (passage 7;

[1] = test system: mESCs derived spinal NPCs; assay: Sufficiency of Wnt ligands or CHIR for dI fates (RT-qPCR at day 9)
Description: The mouse ESC line, MM13, was routinely maintained in ES cell media (DMEM+20% FBS) with 100u/ml of mouse leukocyte inducing factor (LIF). […] To prepare cells for the differentiation, ESC colonies were dissociated with 0.25% trypsin and plated on gelatin coated plates at 1:10 dilution to reduce MEF transfer. Cells cultured on gelatin coated plates and allowed to proliferate for 1-2 days. To initiate differentiation, cells were plated on 0.1% gelatin coated 24-well CellBIND dishes (Corning) at 20,000 cells/ml density in 0.5 ml/well N2/B27 medium that contains 10 ng/ml basic fibroblast growth factor (bFGF). The N2/B27 medium contains 1:1 portions of Advanced Dulbecco's modified Eagle Media (DMEM) F12 (Hyclone) and Neurobasal media (Thermo Fisher Scientific) supplemented with 0.5×N2, 1×B27 supplement (with Vitamin A), 2 mM L-glutamine, 0.1 mM 2-mercaptoethanol (ME), and 1% BSA. On day 1, small colonies of cells can be observed attached to the bottom of the wells. On day 2, cells were supplemented with 10 ng/ml bFGF and 5 μM CHIR99021 for 24 hours to induce a neuromesodermal identity (Gouti et al., 2014). On day 3, media was changed as follows: for protocol 1, cells were exposed to 100 nM RA for 48 hrs. For protocol 2, 10 ng/ml human recombinant BMP4 (Thermo Fisher Scientific) was added concomitantly with 100 nM RA (RA+BMP4) for 48 hrs. For protocol 3, cells were exposed to 100 nM RA for 24 hrs, followed by a pulse of RA+BMP4 for another 24 hours. To induce terminal differentiation in all three conditions, the medium containing growth factors was replaced with basic N2/B27 medium at day 5, and cell allowed to differentiate to day 9. At the end of the differentiation, the cultures were fixed for immunohistochemical analysis or lysed to obtain RNA for RNA-Seq or quantitative reverse transcriptase PCR analysis.
Quantitative (a) RT-PCR analysis: RNA was isolated with RNeasy Mini Kit (Qiagen, cat no. 74104), and converted to cDNA using Superscript IV First Strand Synthesis kit (Thermo Fisher Scientific). qRT-PCR was performed using SYBR Green PCR Master Mix (Applied Biosystems) on Roche 480 Lightcycler (Roche). The relative fold expression was calculated using 2-AACt method of comparing the expression of the target gene with that of the housekeeping gene glyceraldehyde 3-phosphate dehydrogenase (Gapdh). All experiments were repeated at least 2-3 times (technical replicates) from at least two independent differentiations (biological replicates), and data is represented as mean±SEM.
We assessed these models, first by determining the effect of canonical Wnts (Wnt1, Wnt2, and Wnt3a), a non-canonical Wnt (Wnt9b) and a small molecule Wnt agonist (CHIR99021) on dI identity in the RA±BMP4 protocols. When Wnts were added in combination with RA, they were unable to induce the dorsal-most dIs by day 9 (FIG. 14A). […] Thus, Wnts are not sufficient to direct dI fate identity.

[2] = test system: dorsal NPCs in mESC-derived EBs; assay: Embryoid body proliferation assay (EdU incorporation, pH3) with CHIR
Description: Embryoid body (EB) culture. and expansion: To initiate EB formation, dissociated embryonic stem cells were seeded in low attachment plates (Corning) at 10^5 cells/ml density in N2/B27 medium supplemented with 10 ng/ml bFGF. To induce posterior spinal cord and dorsal spinal patterning, RA and RA+BMP4 were added using the same timeline as described for the 2D differentiation, and the media was changed at every other day after day 5.
For EBs, EBs were collected and fixed with fresh 4% PFA for 20 minutes at 4° C. EBs were then equilibrated with 30% sucrose for overnight at 4C and embedded into the OCT compound for cryo-sectioning. 12 um sections were collected onto positive charged slides (VVVR), incubated with the antibody blocking solution for 1 hr, and then stained as above.
Image quantification: To count the number of nuclei, images were converted to 8 bit image in ImageJ, their threshold intensity was adjusted to capture only the florescent nuclei, and the number of nuclei counted using the analyze particle tool in ImageJ. For each image, the area under the DAPI staining was determined using ImageJ and target cells were represented as % of cells in 100 μm^2 DAPI^+ area.
We then asked whether activating Wnt signaling in mESC-derived NMPs affected their mitotic index. To better visualize proliferation, mESCs were permitted to assemble into three dimensional EBs (Andrews et al., 2017; Duval et al., 2019; Gupta et al., 2018), and then treated with RA±BMP4 over the same timeline as protocol 1 and 3 (FIG. 1B) to induce dorsal spinal cord patterning. EBs were then cultured with either DMSO or CHIR from day 5 to day 9 (FIG. 6C), when the cultures were pulsed with 5-Ethynyl-2′-deoxyuridine (EdU) to label cells in S-phase of the cell cycle. Strikingly, there was a ~3-fold increase in EdU+cells in CHIR-treated EBs (FIG. 6E, 6G, 6H) compared to DMSO control (FIG. 6D, 6F, 6H) in both protocols. […] Many of the dividing cells in the CHIR-treated cultures were Sox2+NPCs (FIG. 6E, 6G), while NPCs are largely depleted by day 9 in control cultures (FIG. 6D, 6F). Thus, extending the window of Wnt signaling appears to prolong NPC proliferation.

[3] = RA±BMP4 patterned EBs, CHIR day 5 to day 9

Compound | increase in the number of dI4/dI6s (Pax2+) compared to control (CHIR-expanded EBs; pulse between day 3 and 5 during differentiation of expanded EBs) | identity of the BMP4-mediated dI fates (Lhx2, Foxd3, IsI2) ([1]; RA+BMP4 protocol, Wnts 100 ng/ml or CHIR 5 μM for 24 hrs at day 5) | induction of BMP4 dependent dI fates (Lhx2, Foxd3, IsI1) ([1]; added with RA at day 4 for 24 hrs, Wnts 100 ng/ml, CHIR 5 μM) | increase in EdU+ cells compared to DMSO control [2, 3] | increase in the number of pHistone H3 (pH3)+ cells compared to control [2, 3] | increase in cell proliferation (EdU+ and pH3+ cells) compared to DMSO ([2]; RA±BMP4 patterned EBs, n=15-25 EBs) | identity of CHIR-treated NPCs (Pax3, Pax7, Olig3) ([2]; protocol 1 and protocol 3 EBs, day 9) | identity of cultures kept in CHIR by day 10 (CHIR-expanded EBs; passage 6 or 7 EBs dissociated onto Matrigel) | effect of CHIR removal on differentiation (CHIR-expanded EBs; passage 6 or 7 EBs, day 10)
CC1=C(/C=C/C(C)=C/C=C/C(C)=C/C(=O)O)C(C)(C)CCC1 [RA, retinoic acid] | ~ 6 fold |  |  |  |  |  |  |  | 
Cc1c[nH]c(-c2cnc(NCCNc3ccc(C#N)cn3)nc2-c2ccc(Cl)cc2Cl)n1 [CHIR, CHIR99021] |  | no significant effect | do not induce BMP4-dependent dI fates | ~ 3 fold | 2-4 fold | ~ 3 fold | retained their original identity; also recorded: does not significantly (unpaired t-test) alter their dorsal-ventral identities | continued to be solely Sox2^+ | removal of CHIR triggers spontaneous neural differentiation
